According to US20230226016A1, “AGENTS AND METHODS FOR TREATING TAUOPATHIES” (The Regents of University of California, priority 2020, published 2023):

Legend:
crude AD brain extract = assay: Seeding by crude AD brain extract in tau biosensor cells, Ferumoxytol conjugates, no pre-incubation; format: cell-based, human; settings: mixed with extract and immediately transfected
Text: (A) Seeding by crude AD brain extract measured in tau biosensor cells that were co-transfected with nanoparticles coupled to EGCG by linkers of varying length. (B-C) Negative-stain electron micrographs of EGCG-conjugated and non-conjugated nanoparticles. Nanoparticle coupled with EGCG analog 5c (B) cluster with fibrils of AD-tau. No clustering is seen between non-conjugated nanoparticles and AD-tau fibrils (C).
We tested the activity of Ferumoxytol conjugated EGCG analogs using the biosensor cell assay described above, except we omitted the pre-incubation step such that our assay more closely resembled the scenario of therapeutic intervention, for which there is no pre-incubation period. Nanoparticle conjugated EGCG derivative was mixed with crude AD brain extract and immediately transfected into tau biosensor cells.

AD crude brain extracts = assay: Seeding by crude AD brain extract pre-treated with inhibitor, tau biosensor cells (Example 5); format: cell-based, human; settings: 10 μM final on cells, pre-incubated 16-18 hours
Text: (A) Seeding by crude AD brain extract pre-treated with EGCG or experimental linker-conjugated analogs, as indicated. Inhibitor activity is read-out by measuring seeding in tau biosensor cells. Seeding is taken as a proxy for the fibril load that is contained within the AD crude brain extracts. Reduction in fibril load following treatment with experimental linker-conjugated analogs of EGCG reduces prion-like seeding by AD-tau nearly as effectively as EGCG itself. (B) Representative fluorescence images of tau biosensor cells experiments from A. Intracellular aggregates seeded by crude AD brain extracts are identified as puncta (green dots in the “No inhibitor” treated sample, left fluorescence micrograph). Inhibitor treatment reduces the number of puncta (right fluorescence micrograph). The number of puncta as a function of inhibitor pre-treatment is plotted in A.
We next tested if the D-ring site of triazole-linked amino PEGylation would interfere with tau fibril disaggregation observed for EGCG. […] Crude extract of autopsied brain tissue of a donor with AD (prepared as described in the SI) were pre-incubated with inhibitors (10 μM final concentration on cells) for 16-18 hours and resulting homogenates were added to the cells for imaging 3 days later.

tau-K18+ monomer = target: T1, tau-K18+ monomer (Homo sapiens, UniProt P10636); assay: ThT aggregation kinetics assay; format: biochemical; settings: 20 μM tau-K18+ monomer, equimolar inhibitor
T1 construct: Human Tau tau-K18+(residues Q244-E380 of 4R tau); made in house; host or cells: E. coli BL21-Gold, pNG2 vector
Procedure: (§1) (a) Isothermal titration calorimetry (ITC) of 750 μM EGCG into 75 μM recombinant tau-K18+ fibrils. The binding isotherm was fit using a standard 1 site binding model. (b) ThT assay showing the effect EGCG or negative control, doxycycline, have on the aggregation of 20 μM tau-K18+ monomer^33, a construct that contains all of the residues that are observed in the AD tau fibril core^7,9. Note the sudden drop in ThT signal at 10 hrs (marked by a red arrow) for the sample containing EGCG. (c) Negative stain electron micrographs of 75 μM recombinant tau-K18+ fibrils prior to incubation with EGCG (top) or following 1 or 3 hour incubation with a two-fold molar excess of EGCG at room temperature, as indicated. (d) As in c except EGCG micrographs of tau are of fibrils purified from AD brain tissue and EGCG treatments were carried out at a concentration of 100 μM for a 3 hour or overnight duration at 37° C., as indicated.
Concentrated tau-K18+ was diluted into PBS buffer (pH 7.4) to a final concentration of 20 μM with an equimolar ratio of indicated small molecule inhibitor. […] ThT fluorescence was measured with excitation and emission wavelengths of 440 and 480 nm, and averaged curves were generated from triplicate measurements as indicated in the figure legend. […]

[1] = target: T2, recombinant tau-K18+ fibrils (Homo sapiens, UniProt P10636); assay: Isothermal titration calorimetry (ITC); settings: 750 μM EGCG into 75 μM fibrils, 1 site binding model
Procedure: as §1
Human Tau tau-K18+(residues Q244-E380 of 4R tau) was expressed in a pNG2 vector in BL21-Gold E. coli cells grown in LB to an OD600=0.8. Cells were induced with 0.5 mM IPTG for 3 hours at 37° C. and lysed by sonication in 20 mM MES buffer (pH 6.8) with 1 mM EDTA, 1 mM MgCl2, 1 mM DTT and HALT protease inhibitor before addition of NaCl 500 mM final concentration. […]

[2] = test system: tau fibrils purified from AD brain; assay: Inhibition of seeding in tau-K18 biosensor cells, AD brain purified tau fibrils as seeds; settings: 10 μM inhibitor, overnight preincubation, seeding measured 3 days after transfection
Procedure: (§2) (a) Seeding following overnight preincubation of AD brain purified tau fibrils with a final inhibitor concentration of 10 μM. Seeding was measured 3 days after transfecting biosensor cells with fibril-inhibitor complexes. […] Error bars show the standard deviation of triplicate measurements. […] Seeding (expressed as 10 power) was measured as in a, and IC50 values were calculated from dose-response plots. […] Each column represents the inhibitor response of a different donor. Inhibitor concentrations were 10 μM. Responses to inhibitors were normalized to seeding in the absence of inhibitor, abbreviated “No Inh”, and normalized seeding values for each inhibitor were plotted from maximal inhibitor response (low fractional seeding, left) to minimal response (seeding approaching a value of 1.0, right) for each of the indicated inhibitors.
(§3) After twenty minutes, 10 μl of fibrils were added to 90 μl of tau biosensor cells. The number of seeded aggregates was determined by imaging the entire well of a 96-well plate in triplicate using a Celigo Image Cytometer (Nexcelom) in the YFP channel. Aggregates were counted using ImageJ^45 by subtracting the background fluorescence from unseeded cells and then counting the number of peaks with fluorescence above background using the built-in Particle Analyzer. […]

[3] = target: T2, recombinant tau-K18+ fibrils; assay: Negative stain electron microscopy of recombinant tau fibrils; settings: 75 μM fibrils, two-fold molar excess of EGCG, 3 hr, room temperature
Procedure: as §1

[4] = test system: tau fibrils purified from AD brain tissue; assay: Negative stain electron microscopy of AD brain-derived tau fibrils; set-up: species or system human; settings: 100 μM EGCG, overnight, 37° C.
Procedure: as §1
To prepare specimens of AD brain-derived tau fibrils for structural studies, we examined negatively stained EM grids of purified tau fibrils from the frontal cortex of AD donor 1 (FIG. 1a) at various times following incubation with EGCG. AD brain-derived tau fibrils were more robust than recombinant tau fibrils and disaggregation was accelerated by incubation at 37° C. […]

PHFE2 fibrils = PHFE2 fibrils (Homo sapiens, UniProt P10636); assay: ThT measurement of PHFE2 peptide fibrils; settings: 5 mM EGCG, 30 mM fibrils, 30 min incubation
Procedure: (c) ThT signal of fibrils formed from PHFE2 peptide without EGCG, or following 30 min incubation. Error bars show the standard deviation of triplicate measurements.
Fibrils were grown at 37° C. in an orbital shaker with shaking at 350 rpm for 3-4 weeks. Solutions were removed from shaking and heat upon appearance of fibrils, confirmed by negative stain EM. For ThT experiments, fibrils were diluted to 30 mM in PBS, and ThT was added to a final concentration of 40 μM. EGCG was added from a concentrated stock to a final concentration of 5 mM where indicated. ThT measurements were carried out as described above, except readings were taken from a 384-well plate with a volume of 35 μl.

[5] = test system: crude brain extracts from donors with PSP; assay: Inhibition of seeding by crude PSP brain extracts in tau biosensor cells; settings: 10 μM, N=7 donors
Procedure: as §2, §3

[6] = target: fibrils of recombinant tau40 (Homo sapiens, UniProt P10636); assay: EGCG dose dependence on seeding in tau biosensor cells, fibrils of recombinant tau40 as seeds
Procedure: Error bars show the standard deviation of triplicate measurements. […] (e) EGCG dose dependence on seeding by fibrils of recombinant tau40. Seeding (expressed as 10 power) was measured as in a, and IC50 values were calculated from dose-response plots.
After twenty minutes, 10 μl of fibrils were added to 90 μl of tau biosensor cells. The number of seeded aggregates was determined by imaging the entire well of a 96-well plate in triplicate using a Celigo Image Cytometer (Nexcelom) in the YFP channel. Aggregates were counted using ImageJ^45 by subtracting the background fluorescence from unseeded cells and then counting the number of peaks with fluorescence above background using the built-in Particle Analyzer. The number of aggregates was normalized to the confluence of each well, and dose-response plots were generated by calculating the average and standard deviations from triplicate measurements. For high quality images, cells were photographed on a ZEISS Axio Observer D1 fluorescence microscope using the YFP fluorescence channel.

[7] = test system: crude brain extracts from donors with AD; assay: Inhibition of seeding by crude AD brain extracts in tau biosensor cells; settings: 10 μM
Procedure: as §2, §3

T2 sequence (P10636 561-697): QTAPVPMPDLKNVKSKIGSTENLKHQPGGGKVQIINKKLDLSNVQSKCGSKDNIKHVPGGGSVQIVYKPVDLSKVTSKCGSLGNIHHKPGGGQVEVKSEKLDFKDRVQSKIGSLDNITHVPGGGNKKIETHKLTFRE
T1 sequence (P10636 561-697): as above
Chain of fibrils of recombinant tau40 (P10636 1-441 isoform P10636-8): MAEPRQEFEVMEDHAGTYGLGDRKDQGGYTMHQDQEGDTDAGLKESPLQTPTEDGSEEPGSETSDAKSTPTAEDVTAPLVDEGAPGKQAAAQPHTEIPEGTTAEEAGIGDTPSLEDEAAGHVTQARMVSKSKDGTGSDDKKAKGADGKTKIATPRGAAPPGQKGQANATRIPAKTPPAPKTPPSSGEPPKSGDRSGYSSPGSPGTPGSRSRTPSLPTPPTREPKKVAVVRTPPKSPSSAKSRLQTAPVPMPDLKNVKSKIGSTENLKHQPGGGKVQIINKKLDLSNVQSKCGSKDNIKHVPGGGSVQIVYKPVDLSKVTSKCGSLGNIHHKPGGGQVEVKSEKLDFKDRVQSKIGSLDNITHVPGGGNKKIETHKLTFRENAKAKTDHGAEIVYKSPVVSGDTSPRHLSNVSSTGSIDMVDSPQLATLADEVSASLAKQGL

NCCOCCn1cc(COc2c(O)cc(C(=O)O[C@@H]3Cc4c(O)cc(O)cc4O[C@@H]3c3cc(O)c(O)c(O)c3)cc2O)nn1 [Compound 5a, (2R,3R)-5,7-dihydroxy-2-(3,4,5-trihydroxyphenyl)chroman-3-yl 4-((1-(2-(2-aminoethoxy)ethyl)-H-1,2,3-triazol-4-yl)methoxy)-3,5-dihydroxybenzoate]
inhibition of seeding by crude AD brain extract, Ferumoxytol conjugated analogs (crude AD brain extract): < 50%

NCCOCCOCCOCCn1cc(COc2c(O)cc(C(=O)O[C@@H]3Cc4c(O)cc(O)cc4O[C@@H]3c3cc(O)c(O)c(O)c3)cc2O)nn1 [Compound 5c, (2R,3R)-5,7-dihydroxy-2-(3,4,5-trihydroxyphenyl)chroman-3-yl 4-((1-(2-(2-(2-(2-aminoethoxy)ethoxy)ethoxy)ethyl)-H-1,2,3-triazol-4-yl)methoxy)-3,5-dihydroxybenzoate]
inhibition of seeding by AD brain extracts compared with EGCG (AD crude brain extracts): potency nearly on par with EGCG itself

O=C(O[C@@H]1Cc2c(O)cc(O)cc2O[C@@H]1c1ccc(O)c(O)c1)c1cc(O)c(O)c(O)c1 [ECG]
inhibition of seeding by AD brain extracts compared with EGCG (AD crude brain extracts): inhibit seeding as well as the linker-conjugated analogs

O=C(O[C@@H]1Cc2c(O)cc(O)cc2O[C@@H]1c1cc(O)c(O)c(O)c1)c1cc(O)c(O)c(O)c1 [EGCG, (−)-epigallocatechin gallate]
ThT signal of fibrils formed in the presence of inhibitor (tau-K18+ monomer): abruptly fell after reaching a plateau at 10 hr | lag time of tau aggregation (ThT) (tau-K18+ monomer): no shift in the lag time | stoichiometry N (ITC) [1]: 0.86 | Kd ([1]; read-out: affinity (ITC)): 1.6 µM | inhibition of seeding by tau fibrils purified from AD brain [2]: most effective inhibitors of seeding | disaggregation of recombinant tau fibrils (EM) [3]: virtually vanish | disaggregation of AD brain-derived tau fibrils (EM) [4]: most of the AD brain-derived tau fibrils are lost | ThT signal of PHFE2 fibrils after addition of inhibitor (PHFE2 fibrils): eliminated nearly any measurable ThT signal | blocking of seeding by crude PSP brain extracts [5]: near perfect efficacy | inhibition of seeding by crude PSP brain extracts ([5]; all patient samples): at least 50% | IC50 [6]: 0.4 µM | fractional seeding by AD brain samples ([7]; 15 AD crude brain extracts, normalized to no inhibitor): zero | inhibition of seeding by crude AD brain extracts ([7]; N=15 donors, all patient samples): at least 50%
